What was measured:
Assay in all cases: relative viability (nuclei count vs DMSO), 5 days (fraction); higher = more cells survive
Tosedostat + Linsitinib = compound: CC(C)C[C@@H](C(=O)N[C@H](C(=O)OC1CCCC1)c1ccccc1)[C@H](O)C(=O)NO [Tosedostat] + C[C@]1(O)C[C@@H](c2nc(-c3ccc4ccc(-c5ccccc5)nc4c3)c3c(N)nccn32)C1 [Linsitinib] (partner 1 µM)
How it was run: (§1)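 Values are medians from duplicate plates. Each reflects relative viability, defined as the nuclei count of treated wells over that of vehicle wells. Lung cancer cell lines in 1536-well plates were pin-tool dosed one day after seeding with one drug alone or with a fixed anchor-drug dose plus five library-drug doses (not always all listed) in √10 steps, then fixed, stained and imaged at 4× after 5 days.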

Tosedostat + Palbociclib = compound: CC(C)C[C@@H](C(=O)N[C@H](C(=O)OC1CCCC1)c1ccccc1)[C@H](O)C(=O)NO [Tosedostat] + CC(=O)c1c(C)c2cnc(Nc3ccc(N4CCNCC4)cn3)nc2n(C2CCCC2)c1=O [Palbociclib] (partner 0.5 µM)
How it was run: as §1

Tosedostat + Navitoclax = compound: CC(C)C[C@@H](C(=O)N[C@H](C(=O)OC1CCCC1)c1ccccc1)[C@H](O)C(=O)NO [Tosedostat] + CC1(C)CCC(c2ccc(Cl)cc2)=C(CN2CCN(c3ccc(C(=O)NS(=O)(=O)c4ccc(N[C@H](CCN5CCOCC5)CSc5ccccc5)c(S(=O)(=O)C(F)(F)F)c4)cc3)CC2)C1 [Navitoclax] (partner 0.5 µM)
How it was run: as §1

Tosedostat + Trametinib = compound: CC(C)C[C@@H](C(=O)N[C@H](C(=O)OC1CCCC1)c1ccccc1)[C@H](O)C(=O)NO [Tosedostat] + CC(=O)Nc1cccc(-n2c(=O)n(C3CC3)c(=O)c3c(Nc4ccc(I)cc4F)n(C)c(=O)c(C)c32)c1 [Trametinib] (partner 0.02 µM)
How it was run: as §1

| Cell Line | relative viability (Tosedostat + Linsitinib; first compound 0.02 µM) | relative viability (Tosedostat + Linsitinib; first compound 0.06325 µM) | relative viability (Tosedostat + Linsitinib; first compound 0.2 µM) | relative viability (Tosedostat + Linsitinib; first compound 0.6325 µM) | relative viability (Tosedostat + Linsitinib; first compound 2 µM) | relative viability (Tosedostat + Palbociclib; first compound 0.02 µM) | relative viability (Tosedostat + Palbociclib; first compound 0.06325 µM) | relative viability (Tosedostat + Palbociclib; first compound 0.2 µM) | relative viability (Tosedostat + Palbociclib; first compound 0.6325 µM) | relative viability (Tosedostat + Palbociclib; first compound 2 µM) | relative viability (Tosedostat + Navitoclax; first compound 0.02 µM) | relative viability (Tosedostat + Navitoclax; first compound 0.06325 µM) | relative viability (Tosedostat + Navitoclax; first compound 0.2 µM) | relative viability (Tosedostat + Navitoclax; first compound 0.6325 µM) | relative viability (Tosedostat + Navitoclax; first compound 2 µM) | relative viability (Tosedostat + Trametinib; first compound 0.02 µM) | relative viability (Tosedostat + Trametinib; first compound 0.06325 µM) | relative viability (Tosedostat + Trametinib; first compound 0.2 µM) | relative viability (Tosedostat + Trametinib; first compound 0.6325 µM) | relative viability (Tosedostat + Trametinib; first compound 2 µM) |
| --- | --- | --- | --- | --- | --- | --- | --- | --- | --- | --- | --- | --- | --- | --- | --- | --- | --- | --- | --- | --- |
| LOU-NH91 | 0.961 | 0.932 | 0.991 | 0.973 | 0.938 | 0.549 | 0.458 | 0.545 | 0.559 | 0.528 | 0.753 | 0.657 | 0.615 | 0.543 | 0.483 | 0.787 | 0.803 | 0.824 | 0.766 | 0.777 |
| LU99A | 0.508 | 0.555 | 0.528 | 0.561 | 0.504 | 0.428 | 0.449 | 0.476 | 0.376 | 0.325 | 0.813 | 0.869 | 0.774 | 0.832 | 0.683 | 0.51 | 0.47 | 0.567 | 0.544 | 0.47 |
| LXF-289 | 1.02 | 0.879 | 1.02 | 0.946 | 0.994 | 0.653 | 0.608 | 0.612 | 0.665 | 0.625 | 0.965 | 0.879 | 0.938 | 0.897 | 0.958 | 0.744 | 0.651 | 0.661 | 0.703 | 0.687 |
| NCI-H23 | 0.612 | 0.56 | 0.548 | 0.474 | 0.416 | 0.509 | 0.494 | 0.521 | 0.37 | 0.428 | 0.765 | 0.872 | 0.885 | 0.57 | 0.528 | 0.426 | 0.329 | 0.359 | 0.321 | 0.284 |
| NCI-H322M | 0.8 | 0.902 | 0.894 | 0.877 | 0.839 | 0.466 | 0.473 | 0.459 | 0.524 | 0.455 | 1.17 | 1.11 | 1.19 | 1.14 | 1.02 | 0.548 | 0.501 | 0.452 | 0.456 | 0.467 |
| NCI-H441 | 0.487 | 0.544 | 0.473 | 0.402 | 0.403 | 0.188 | 0.258 | 0.242 | 0.23 | 0.186 | 1.01 | 0.477 | 0.421 | 0.576 | 0.339 | 0.478 | 0.579 | 0.499 | 0.562 | 0.461 |
| NCI-H460 | 0.845 | 0.84 | 0.857 | 0.849 | 0.942 | 0.192 | 0.203 | 0.11 | 0.146 | 0.128 | 1.38 | 1.18 | 1.09 | 0.891 | 1.23 | 0.157 | 0.197 | 0.204 | 0.181 | 0.217 |
| NCI-H520 | 1.13 | 0.962 | 0.944 | 1.02 | 1.06 | 0.245 | 0.236 | 0.239 | 0.303 | 0.315 | 1.19 | 1.3 | 1.14 | 1.08 | 1.4 | 0.731 | 0.733 | 0.645 | 0.699 | 0.67 |
| NCI-H647 | 1.07 | 1.2 | 1.01 | 1.12 | 1.24 | 0.401 | 0.344 | 0.388 | 0.427 | 0.502 | 1.25 | 1.22 | 0.936 | 1.08 | 1.14 | 0.452 | 0.485 | 0.425 | 0.622 | 0.515 |
| NCI-H727 | 0.264 | 0.266 | 0.272 | 0.168 | 0.322 | 0.715 | 0.637 | 0.617 | 0.645 | 0.597 | 0.369 | 0.295 | 0.386 | 0.282 | 0.195 | 0.398 | 0.37 | 0.413 | 0.412 | 0.376 |
| NCI-H838 | 1.09 | 0.982 | 1.02 | 1.08 | 1.31 | 0.243 | 0.219 | 0.216 | 0.261 | 0.256 | 1.23 | 1.16 | 1.2 | 1.33 | 1.46 | 0.559 | 0.446 | 0.52 | 0.596 | 0.59 |
| NCI-H1355 | 0.717 | 0.839 | 0.762 | 0.701 | 0.726 | 0.351 | 0.399 | 0.384 | 0.403 | 0.374 | 0.766 | 0.795 | 1.05 | 0.979 | 0.803 | 0.344 | 0.388 | 0.44 | 0.386 | 0.406 |
| NCI-H1395 | 0.993 | 0.944 | 1.03 | 0.821 | 0.782 | 0.63 | 0.661 | 0.596 | 0.709 | 0.596 | 1.06 | 1.19 | 0.905 | 0.917 | 0.886 | 0.968 | 1.07 | 1.12 | 1.05 | 1.06 |
| NCI-H1437 | 1.12 | 1.03 | 1 | 0.752 | 0.66 | 0.355 | 0.32 | 0.357 | 0.353 | 0.38 | 1.13 | 1.09 | 1.15 | 1.09 | 0.99 | 0.552 | 0.523 | 0.631 | 0.469 | 0.547 |
| NCI-H1651 | 0.996 | 0.963 | 1.11 | 0.875 | 0.863 | 0.528 | 0.525 | 0.511 | 0.553 | 0.535 | 1.03 | 0.885 | 1.28 | 1.07 | 1 | 0.777 | 0.789 | 0.897 | 0.869 | 0.742 |
| NCI-H1666 | 0.864 | 0.815 | 0.805 | 0.818 | 0.989 | 0.589 | 0.696 | 0.61 | 0.601 | 0.657 | 0.864 | 0.946 | 0.98 | 1.39 | 1.05 | 0.962 | 0.856 | 0.929 | 0.91 | 0.851 |
| NCI-H1734 | 0.902 | 0.989 | 0.867 | 0.913 | 0.827 | 0.367 | 0.372 | 0.354 | 0.313 | 0.265 | 0.833 | 0.801 | 0.789 | 0.735 | 0.683 | 0.778 | 0.666 | 0.664 | 0.502 | 0.572 |
| NCI-H1755 | 0.942 | 1.02 | 0.985 | 0.965 | 0.939 | 0.472 | 0.47 | 0.465 | 0.503 | 0.423 | 1.05 | 1.05 | 1.01 | 0.931 | 0.958 | 0.782 | 0.837 | 0.813 | 0.869 | 0.744 |
| NCI-H1792 | 0.553 | 0.578 | 0.496 | 0.548 | 0.636 | 0.659 | 0.634 | 0.612 | 0.683 | 0.695 | 0.63 | 0.839 | 0.651 | 0.652 | 0.567 | 0.4 | 0.417 | 0.4 | 0.42 | 0.479 |
| NCI-H1793 | 0.678 | 0.984 | 0.711 | 0.641 | 0.873 | 0.302 | 0.325 | 0.339 | 0.293 | 0.375 | 0.402 | 0.463 | 0.402 | 0.449 | 0.4 | 0.507 | 0.49 | 0.445 | 0.437 | 0.448 |
| NCI-H1915 | 1.16 | 1.11 | 1.11 | 1.1 | 0.961 | 0.41 | 0.512 | 0.554 | 0.523 | 0.495 | 0.801 | 0.775 | 0.783 | 0.743 | 0.711 | 0.295 | 0.313 | 0.292 | 0.3 | 0.283 |
| NCI-H1944 | 1.17 | 1.14 | 1.28 | 1.12 | 1.02 | 0.315 | 0.356 | 0.386 | 0.32 | 0.377 | 1.1 | 0.975 | 1.08 | 1.02 | 1.01 | 0.422 | 0.396 | 0.4 | 0.395 | 0.422 |
| NCI-H1975 | 0.958 | 0.988 | 0.939 | 0.754 | 0.769 | 0.574 | 0.53 | 0.561 | 0.432 | 0.415 | 1.06 | 1.14 | 1 | 1.01 | 0.869 | 0.35 | 0.401 | 0.453 | 0.359 | 0.344 |
| NCI-H1993 | 0.669 | 0.698 | 0.742 | 0.703 | 0.629 | 0.72 | 0.688 | 0.698 | 0.67 | 0.562 | 0.895 | 0.877 | 0.817 | 0.747 | 0.603 | 0.501 | 0.61 | 0.535 | 0.498 | 0.504 |
| NCI-H2009 | 1.2 | 1.12 | 1.17 | 0.881 | 1.02 | 0.252 | 0.212 | 0.254 | 0.274 | 0.181 | 1.2 | 1.12 | 1.17 | 1.06 | 1.07 | 0.248 | 0.325 | 0.321 | 0.293 | 0.276 |
| NCI-H2023 | 0.659 | 0.619 | 0.594 | 0.65 | 0.587 | 0.333 | 0.331 | 0.368 | 0.344 | 0.424 | 1.07 | 0.989 | 1.05 | 0.938 | 0.923 | 0.607 | 0.496 | 0.465 | 0.45 | 0.502 |

Source: the supplement of paper PMC10307832
